Reference: patent US9765299B2, “Chemically defined albumin-free conditions for cardiomyocyte differentiation of human pluripotent stem cells” (Wisconsin Alumni Research Foundation, priority 2014, dated 2017)

Tests used:
hPSCs = experiment: Cell death of hPSCs on Gsk3 inhibitor treatment in albumin-free medium; assay type: cell-based, human
Method: hPSCs maintained on a Synthemax-coated surface in E8 or mTeSR1 medium were dissociated into single cells with Accutase® (Life Technologies) at 37° C. for 5 min and then seeded onto a Synthemax-coated cell culture dish at 100,000-200,000 cell/cm^2 in E8 supplemented with 5 μM ROCK inhibitor Y-27632 (Selleckchem)(day −2) for 24 hours. Cells were then cultured in E8, changed daily. […] At day 0 the cell density should be between 250,000 and 400,000 cells/cm^2. At day 3, half the medium was changed to fresh RPMI medium containing 2.5 μM IWP2 (Tocris). At day 5, the entire medium was changed with RPMI medium. Cells were maintained in the cardiomyocyte maintenance medium (CMM: RPMI supplemented with 10 μg/ml insulin (sigma) and 200 μg/ml L-Ascorbic acid 2-phosphate sesquimagnesium salt hydrate (sigma)) starting from day 7, with the medium changed every 2 days.

[1] = test system: brachyury expression in ES03 hESCs; experiment: Brachyury expression (mesendoderm induction) by western blot and immunostaining; assay type: cell-based, human
Method: Cells were fixed with 4% paraformaldehyde for 15 min at room temperature and then stained with primary and secondary antibodies (Table 3) in PBS plus 0.4% Triton X-100 and 5% non-fat dry milk (Bio-Rad). Nuclei were stained with Gold Anti-fade Reagent with DAPI (Invitrogen). An epifluorescence microscope (Leica DM IRB) with a QImaging® Retiga 4000R camera was used for imaging analysis. Cells were lysed in M-PER Mammalian Protein Extraction Reagent (Pierce) in the presence of Halt Protease and Phosphatase Inhibitor Cocktail (Pierce). Proteins were separated by 10% Tris-Glycine SDS/PAGE (Invitrogen) under denaturing conditions and transferred to a nitrocellulose membrane. After blocking with 5% dried milk in TBST, the membrane was incubated with primary antibody overnight at 4° C. The membrane was then washed, incubated with an anti-mouse/rabbit peroxidase-conjugated secondary antibody (Table 3) at room temperature for 1 hour, and developed by SuperSignal chemiluminescence (Pierce).

`Cc1c[nH]c(-c2cnc(NCCNc3ccc(C#N)cn3)nc2-c2ccc(Cl)cc2Cl)n1` [CH] was tested, and the cell death (hPSCs; 12 μM at day 0, by 24 hr, absence of BSA) was “prolific cell death”, the cell death (hPSCs; same concentration of CH as Burridge et al., 2 days, albumin-free medium) was “substantial cell death” and the brachyury expression ([1]; 6 μM CH, albumin-free RPMI, after 24 hr) was “induced robust brachyury expression”. The brachyury expression ([1]; 30 μM CH, medium containing 1% HRA) was “induced brachyury expression” and the brachyury expression ([1]; CH concentrations up to 6 μM, presence of 1% human recombinant albumin (HRA)) was “unable to induce brachyury expression”.
